Source: patent publication US12649733B2, “3,6-diamino-pyridazin-3-yl derivatives, pharmaceutical compositions containing them and their uses as pro-apoptotic agents” (LES LABORATOIRES SERVIER, priority 2019, dated 2026)

Assays:
[1] = system: MOLT-4 cells; experiment: MOLT-4 cell viability, MTT assay; assay type: cell-based; details: Homo sapiens, MOLT-4, 48 h, 48 h exposure
Summary of the method: (§1)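 Viability read by MTT reduction (OD 540 nm after overnight SDS/HCl lysis) after 48 h compound treatment of cells in RPMI 1640/10% FBS. Triplicates at nine concentrations, 3.16-fold apart; four-parameter curve fitting yields IC50.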

[2] = system: H146 cells; experiment: H146 cell viability, MTT assay; assay type: cell-based; details: Homo sapiens, NCI-H146, 48 h, 48 h exposure
Summary of the method: as §1

[3] = biological target: BCLXL (Homo sapiens, UniProt Q07817, V10N/V9A); experiment: Fluorescence polarisation assay (PUMA-based probe displacement); assay type: binding; note: 20 nM protein, 10 nM fluorescent probe
Sequence of BCLXL (Q07817 with tags, fused parts or gaps V9A/V10N): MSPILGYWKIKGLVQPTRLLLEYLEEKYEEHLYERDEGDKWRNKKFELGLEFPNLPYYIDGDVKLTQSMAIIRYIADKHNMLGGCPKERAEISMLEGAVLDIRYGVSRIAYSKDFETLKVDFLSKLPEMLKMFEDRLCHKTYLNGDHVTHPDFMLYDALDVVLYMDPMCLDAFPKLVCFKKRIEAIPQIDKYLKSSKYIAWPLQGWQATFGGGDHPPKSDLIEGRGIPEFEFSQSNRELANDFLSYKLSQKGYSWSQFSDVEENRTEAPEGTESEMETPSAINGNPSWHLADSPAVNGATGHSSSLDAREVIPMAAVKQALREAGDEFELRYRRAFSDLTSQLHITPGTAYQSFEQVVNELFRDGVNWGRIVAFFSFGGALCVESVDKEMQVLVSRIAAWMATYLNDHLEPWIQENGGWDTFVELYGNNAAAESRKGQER

| SMILES | IC50 [1] [nM] | IC50 [2] [nM] | Ki [3] [nM] |
| --- | --- | --- | --- |
| Cc1cc(N(C)c2ccc(C(=O)O)s2)nnc1Nc1nc2ccccc2s1 [Example 56, 5-({6-[(1,3-Benzothiazol-2-yl)amino]-5-methylpyridazin-3-yl}(methyl)amino)thiophene-2-carboxylic acid] | > 15000 | > 15000 | > 10000 |
| Cc1c(Nc2nc(C(=O)O)cs2)nnc(Nc2nc3cc(F)c(F)cc3s2)c1C [Example 57, 2-[[6-[(5,6-Difluoro-1,3-benzothiazol-2-yl)amino]-4,5-dimethyl-pyridazin-3-yl]amino]thiazole-4-carboxylic acid] | > 15000 | 13400 | 350 |
| Cc1c(Nc2nc(C(=O)O)cs2)nnc(Nc2nc3cc(F)ccc3s2)c1C [Example 58, 2-[[6-[(5-Fluoro-1,3-benzothiazol-2-yl)amino]-4,5-dimethyl-pyridazin-3-yl]amino]thiazole-4-carboxylic acid] | > 15000 | > 15000 | 49 |
| Cc1cc(N(C)c2nc(C(=O)O)c(CCCOC3CCCCC3)s2)nnc1Nc1nc2ccccc2s1 [Example 61, 2-({6-[(1,3-Benzothiazol-2-yl)amino]-5-methylpyridazin-3-yl}(methyl)amino)-5-[3-(cyclohexyloxy)propyl]-1,3-thiazole-4-carboxylic acid] | 192 | 593 | < 1 |
| COCCCc1sc(N(CCCOC)c2cc(C)c(Nc3nc4ccccc4s3)nn2)nc1C(=O)O [Example 64, 2-({6-[(1,3-Benzothiazol-2-yl)amino]-5-methylpyridazin-3-yl}(3-methoxypropyl)amino)-5-(3-methoxypropyl)-1,3-thiazole-4-carboxylic acid] | 3590 | 22.4 | 31 |
| COCCCN(c1cc(C)c(Nc2nc3ccccc3s2)nn1)c1nc(C(=O)O)c(CCCOC2CCCCC2)s1 [Example 66, 2-({6-[(1,3-Benzothiazol-2-yl)amino]-5-methylpyridazin-3-yl}(3-methoxypropyl)amino)-5-[3-(cyclohexyloxy)propyl]-1,3-thiazole-4-carboxylic acid] | 527 | 1160 | 1.9 |
| COCCCN(c1cc(C)c(Nc2nc3ccccc3s2)nn1)c1nc(C(=O)O)c(CCCOc2ccccc2F)s1 [Example 67, 2-({6-[(1,3-Benzothiazol-2-yl)amino]-5-methylpyridazin-3-yl}(3-methoxypropyl)amino)-5-[3-(2-fluorophenoxy)propyl]-1,3-thiazole-4-carboxylic acid] | 754 | 710 | < 1 |
| Cc1cc(N(C)c2nc(C(=O)O)c(N3CC(OCc4ccccc4)C3)s2)nnc1Nc1nc2ccccc2s1 [Example 68, 2-({6-[(1,3-Benzothiazol-2-yl)amino]-5-methylpyridazin-3-yl}(methyl)amino)-5-[3-(benzyloxy)azetidin-1-yl]-1,3-thiazole-4-carboxylic acid] | 279 | 2600 | 5.7 |
| Cc1cc(N(C)c2nc(C(=O)O)c(N3CC(Oc4ccccc4)C3)s2)nnc1Nc1nc2ccccc2s1 [Example 69, 2-({6-[(1,3-Benzothiazol-2-yl)amino]-5-methylpyridazin-3-yl}(methyl)amino)-5-(3-phenoxyazetidin-1-yl)-1,3-thiazole-4-carboxylic acid] | 446 | 686 | 4.2 |
| Cc1cc(N(C)c2nc(C(=O)O)c(N3CC[C@H](OCc4ccccc4)C3)s2)nnc1Nc1nc2ccccc2s1 [Example 70, 2-({6-[(1,3-Benzothiazol-2-yl)amino]-5-methylpyridazin-3-yl}(methyl)amino)-5-[(3S)-3-(benzyloxy)pyrrolidin-1-yl]-1,3-thiazole-4-carboxylic acid] | > 41600 | > 15000 | 30 |
